The values below are quoted from earlier work in PubChem BioAssay AID1259409 (Chemical Carcinogenesis Research Information System (CCRIS), 2018).

This data set relates to rodent chemically induced tumor inhibition, incidence and multiplicity. Briefly: CCRIS tumor inhibitor studies.

As to `Cc1c(C)c2c(c(C)c1O)CC[C@@](C)(CCC[C@H](C)CCC[C@H](C)CCCC(C)C)O2`, the “tumour outcome (control, treated, inhibition, significance)” value is, setting by setting: (Carcinogen: 7,12-DIMETHYLBENZ[A]ANTHRACENE, 57-97-6, Dose [Inhibitor]: 0.2% IN HIGH SATURATED FAT DIET DAILY STARTING 29 D BEFORE CARCINOGEN TREATMENT AND CONTINUING FOR DURATION OF STUDY (ST, Route [Inhibitor]: ORAL, Species: RAT, Strain/Sex: SPRAGUE-DAWLEY/FEMALE, Target Tissue: Type of Lesion: MAMMARY GLAND: ADENOCARCINOMA, Dose [Carcinogen]: 10 MG IN 1 ML STRIPPED CORN OIL ONCE AT 50 D OF AGE, Promoter: NONE USED) 65%, 65%, 0%, not calculated; (Carcinogen: 7,12-DIMETHYLBENZ[A]ANTHRACENE, 57-97-6, Dose [Inhibitor]: 0.2% IN LOW FAT DIET DAILY STARTING 29 D BEFORE CARCINOGEN TREATMENT AND CONTINUING FOR DURATION OF STUDY (STUDY DURATIO, Route [Inhibitor]: ORAL, Species: RAT, Strain/Sex: SPRAGUE-DAWLEY/FEMALE, Target Tissue: Type of Lesion: MAMMARY GLAND: ADENOCARCINOMA, Dose [Carcinogen]: 10 MG IN 1 ML STRIPPED CORN OIL ONCE AT 50 D OF AGE, Promoter: NONE USED) 35%, 35%, 0%, not calculated; (Carcinogen: 7,12-DIMETHYLBENZ[A]ANTHRACENE, 57-97-6, Dose [Inhibitor]: 0.2% IN LOW FAT DIET THROUGHOUT THE EXPERIMENT, (STUDY DURATION: 32 WK), Route [Inhibitor]: ORAL, Species: RAT, Strain/Sex: SPRAGUE-DAWLEY/FEMALE, Target Tissue: Type of Lesion: MAMMARY GLAND: PARENCHYMAL CELL CARCINOMA, Dose [Carcinogen]: 10 MG IN 1 ML CORN OIL AT 50 D OF AGE ONCE, Promoter: NONE USED) 37%, 32%, 14%, not calculated; (Carcinogen: 7,12-DIMETHYLBENZ[A]ANTHRACENE, 57-97-6, Dose [Inhibitor]: 0.2% IN SATURATED FAT DIET THROUGHOUT THE EXPERIMENT, (STUDY DURATION: 32 WK), Route [Inhibitor]: ORAL, Species: RAT, Strain/Sex: SPRAGUE-DAWLEY/FEMALE, Target Tissue: Type of Lesion: MAMMARY GLAND: PARENCHYMAL CELL CARCINOMA, Dose [Carcinogen]: 10 MG IN 1 ML CORN OIL AT 50 D OF AGE ONCE, Promoter: NONE USED) 67%, 65%, 3%, not calculated; (Carcinogen: 7,12-DIMETHYLBENZ[A]ANTHRACENE, 57-97-6, Dose [Inhibitor]: 43 UG IN 80 µL ACETONE ONCE APPLIED ON BACK 5 MIN PRIOR TO CARCINOGEN DOSE (STUDY DURATION: 4 MO), Route [Inhibitor]: DERMAL, Species: MOUSE, Strain/Sex: ICR/FEMALE, Target Tissue: Type of Lesion: SKIN: TUMOR, Dose [Carcinogen]: 25 UG IN 80 µL ACETONE APPLIED ON BACK, Promoter: CROTON OIL, 8001-28-3) 29/30 (97%), 27/30 (90%), 7%, not significant; (Carcinogen: 7,12-DIMETHYLBENZ[A]ANTHRACENE;57-97-6, Dose [Inhibitor]: 200 MG IN 1 ML OLIVE OIL ONCE 1 HR PRIOR TO CARCINOGEN DOSE(STUDY DURATION: 18 WK), Route [Inhibitor]: GAVAGE, Species: RAT, Strain/Sex: SPRAGUE-DAWLEY/FEMALE, Target Tissue: Type of Lesion: MAMMARY GLAND: TUMOR, Dose [Carcinogen]: 12 MG IN 1 ML OLIVE OIL ADMINISTERED 1 HR AFTER INHIBITOR, Promoter: NONE USED) 27/34 (80%), 10/18 (56%), 30%, not significant. Also, the “tumour outcome (control, treated, inhibition, significance)” value reads like this: (Carcinogen: 7,12-DIMETHYLBENZ[A]ANTHRACENE, 57-97-6, Dose [Inhibitor]: 1000 UG APPLIED ONCE 5 MIN PRIOR TO CARCINOGEN DOSE (STUDY DURATION: 28 WK), Route [Inhibitor]: DERMAL, Species: MOUSE, Strain/Sex: CD-1/FEMALE, Target Tissue: Type of Lesion: SKIN: PAPILLOMA, Dose [Carcinogen]: 2.56 UG APPLIED ONCE 5 MIN AFTER INHIBITOR, Promoter: 12-O-TETRADECANOYLPHORBOL-13-ACETATE, 16561-29-8) 82%, 68%, 17%, not calculated; (Carcinogen: METHYL(ACETOXYMETHYL)NITROSAMINE, 56856-83-8, Dose [Inhibitor]: 0, 5.8 NMOL IN DRINKING WATER BEGINNING 2 WK PRIOR TO CARCINOGEN AND CONTINUED FOR STUDY DURATION, (STUDY DURATION: 13 M, Dose [Inhibitor]: 0, 5.8 NMOL IN DRINKING WATER BEGINNING 2 WK PRIOR TO CARCINOGEN AND CONTINUED FOR STUDY DURATION, (STUDY DURATION: 13 M, Route [Inhibitor]: ORAL, Species: HAMSTER, Strain/Sex: SYRIAN/FEMALE, Target Tissue: Type of Lesion: ORAL CAVITY: TUMOR, Dose [Carcinogen]: 2 MG/KG BW IN DISTILLED WATER TO RIGHT CHEEK POUCH 2/MO FOR 6 MO (TOTAL DOSE 24 MG/KG), Promoter: NONE USED) 14/15 (93%), 1/15 (7%), 92%, p<0.001; (Carcinogen: N-BIS(2-HYDROXYPROPYL)NITROSAMINE, 53609-64-6, Dose [Inhibitor]: 0, 1% IN DIET FOR 30 WK BEGINNING POST CARCINOGEN TREATMENT (STUDY DURATION: 32 WK), Route [Inhibitor]: ORAL, Species: RAT, Strain/Sex: F344/MALE, Target Tissue: Type of Lesion: BLADDER: ADENOMA, Dose [Carcinogen]: 0.1% IN DRINKING WATER FOR 2 WK, Promoter: NONE USED) 5%, 15%, -200%, not calculated; (Carcinogen: N-BIS(2-HYDROXYPROPYL)NITROSAMINE, 53609-64-6, Dose [Inhibitor]: 0, 1% IN DIET FOR 30 WK BEGINNING POST CARCINOGEN TREATMENT (STUDY DURATION: 32 WK), Route [Inhibitor]: ORAL, Species: RAT, Strain/Sex: F344/MALE, Target Tissue: Type of Lesion: KIDNEY: TUMOR, Dose [Carcinogen]: 0.1% IN DRINKING WATER FOR 2 WK, Promoter: NONE USED) 10%, 20%, -100%, not calculated; (Carcinogen: N-BIS(2-HYDROXYPROPYL)NITROSAMINE, 53609-64-6, Dose [Inhibitor]: 0, 1% IN DIET FOR 30 WK BEGINNING POST CARCINOGEN TREATMENT (STUDY DURATION: 32 WK), Route [Inhibitor]: ORAL, Species: RAT, Strain/Sex: F344/MALE, Target Tissue: Type of Lesion: THYROID: ADENOMA, Dose [Carcinogen]: 0.1% IN DRINKING WATER FOR 2 WK, Promoter: NONE USED) 5%, 10%, -100%, not calculated; (Carcinogen: N-BIS(2-HYDROXYPROPYL)NITROSAMINE, 53609-64-6, Dose [Inhibitor]: 0, 1% IN DIET FOR 30 WK BEGINNING POST CARCINOGEN TREATMENT (STUDY DURATION: 32 WK), Route [Inhibitor]: ORAL, Species: RAT, Strain/Sex: F344/MALE, Target Tissue: Type of Lesion: THYROID: CARCINOMA, Dose [Carcinogen]: 0.1% IN DRINKING WATER FOR 2 WK, Promoter: NONE USED) 20%, 10%, 50%, not calculated. The “tumour outcome (control, treated, inhibition, significance)” value is on record as 45%, 10%, 78%, p<0.05 (Carcinogen: N-BIS(2-HYDROXYPROPYL)NITROSAMINE, 53609-64-6, Dose [Inhibitor]: 0, 1% IN DIET FOR 30 WK BEGINNING POST CARCINOGEN TREATMENT (STUDY DURATION: 32 WK, Route [Inhibitor]: ORAL, Species: RAT, Strain/Sex: F344/MALE, Target Tissue: Type of Lesion: LUNG: CARCINOMA, Dose [Carcinogen]: 0.1% IN DRINKING WATER FOR 2 WK, Promoter: NONE USED); 8/18 (44%), 5/18 (28%), 36%, not calculated (Carcinogen: N-METHYL-N'-NITRO-N-NITROSOGUANIDINE, 70-25-7, N-ETHYL-N-HYDROXYETHYLNITROSAMINE, 13147-25-6, N-METHYLBENZYLNITROSAM, Carcinogen: N-METHYL-N'-NITRO-N-NITROSOGUANIDINE, 70-25-7, N-ETHYL-N-HYDROXYETHYLNITROSAMINE, 13147-25-6, N-METHYLBENZYLNITROSAM, Dose [Inhibitor]: 0, 1% IN DIET FOR 36 WK (STUDY DURATION: 36 WK), Route [Inhibitor]: ORAL, Species: RAT, Strain/Sex: F344/MALE, Target Tissue: Type of Lesion: KIDNEY: RENAL CELL TUMOR, Dose [Carcinogen]: 100 MG/KG BW MNNG ONCE, 750 MG/KG BW EHEN ONCE, 0.5 MG/KG BW MBN TWICE, 40 MG/KG BW DMH 4 TIMES, 0.05% DBN IN DRINKING W, Promoter: NONE USED); 60%, 50%, 17%, not significant (Carcinogen: N-METHYL-N-NITROSOUREA, 684-93-5, Dose [Inhibitor]: 0, 3.349 UMOL/G IN DIET FOR DURATION OF STUDY (STUDY DURATION: 19 WK), Route [Inhibitor]: ORAL, Species: RAT, Strain/Sex: SPRAGUE-DAWLEY/FEMALE, Target Tissue: Type of Lesion: MAMMARY GLAND: TUMOR, Dose [Carcinogen]: 30 MG/KG IN ACIDIFIED SALINE ONCE, Promoter: NONE USED); 6/15 (40%), 3/15 (20%), 50%, p<0.05 (Carcinogen: N-METHYLBENZYLNITROSAMINE, 937-40-6, Dose [Inhibitor]: 30, 142 IU IN BASAL DIET BEGINNING 1 WK POST CARCINOGEN TREATMENT (STUDY DURATION: 26 WK), Route [Inhibitor]: ORAL, Species: MOUSE, Strain/Sex: C57BL/FEMALE, Target Tissue: Type of Lesion: ESOPHAGUS: TUMORS, Dose [Carcinogen]: 0.2 MG/KG BW IN CORN OIL 3/WK FOR 3 WK, Promoter: NONE USED); 12/15 (80%), 11/16 (69%), 14%, not significant (Carcinogen: N-METHYLBENZYLNITROSAMINE, 937-40-6, Dose [Inhibitor]: 30, 142 IU IN BASAL DIET BEGINNING 1 WK POST CARCINOGEN TREATMENT TO MICE INFECTED WITH LP-BM5 MURINE RETROVIRUS (STUDY, Route [Inhibitor]: ORAL, Species: MOUSE, Strain/Sex: C57BL/FEMALE, Target Tissue: Type of Lesion: ESOPHAGUS: TUMORS, Dose [Carcinogen]: 0.2 MG/KG BW IN CORN OIL 3/WK FOR 3 WK, Promoter: NONE USED); 10/17 (59%), 6/16 (38%), 36%, p<0.05 (Carcinogen: N-NITROSOMETHYLBENZYLAMINE, 937-40-6, Dose [Inhibitor]: 20, 142 MG/KG DIET BEGINNING POST CARCINOGEN TREATMENT AND CONTINUING FOR DURATION OF STUDY (STUDY DURATION: 23 WK), Route [Inhibitor]: ORAL, Species: MOUSE, Strain/Sex: C57BL/FEMALE, Target Tissue: Type of Lesion: ESOPHAGUS: TUMOR, Dose [Carcinogen]: 0.2 MG/KG BW IN CORN OIL 3/WK FOR 3 WK, Promoter: ETHANOL, 64-17-5). The “tumour outcome (control, treated, inhibition, significance)” value (Carcinogen: NONE USED, Dose [Inhibitor]: 25.5, 550.9 MG/KG IN DIET FOR 40 WK (STUDY DURATION: 40 WK), Route [Inhibitor]: ORAL, Species: MOUSE, Strain/Sex: STRAIN-A/MALE, Target Tissue: Type of Lesion: LUNG: TUMOR, Promoter: NONE USED) was 8/15 (53%), 4/15 (27%), 49%, not significant and the “tumour outcome (control, treated, inhibition, significance)” value (Carcinogen: URETHANE, 51-79-6, Dose [Inhibitor]: 25, 500 MG/KG IN DIET FOR THE DURATION OF STUDY (STUDY DURATION: 26 WK), Route [Inhibitor]: ORAL, Species: MOUSE, Strain/Sex: DDY/MALE, Target Tissue: Type of Lesion: LUNG: TUMOR, Dose [Carcinogen]: 750 MG/KG BW ONCE, Promoter: NONE USED) is reported as 100%, 80%, 20%, not calculated. For the same molecule, under “Carcinogen: N-BIS(2-HYDROXYPROPYL)NITROSAMINE, 53609-64-6, Dose [Inhibitor]: 0, 1% IN DIET FOR 30 WK BEGINNING POST CARCINOGEN TREATMENT (STUDY DURATION: 32 WK), Route [Inhibitor]: ORAL, Species: RAT, Strain/Sex: F344/MALE, Target Tissue: Type of Lesion: LUNG: ADENOMA, Dose [Carcinogen]: 0.1% IN DRINKING WATER FOR 2 WK, Promoter: NONE USED”, the outcome was 100%, 100%, 0, not significant.
